Test results taken from patent publication US20140243415A1, “COMPOUNDS INHIBITING GALECTIN-1 EXPRESSION, CANCER CELL PROLIFERATION, INVASION, AND TUMORIGENESIS” (ONCOETHIX SA, priority 2011, published 2014).

How the values were obtained:
SQ20B cells [1] = assay: In vitro growth inhibition assay; type: cell-based, human; conditions: growth at day 6
Experimental: (§1) FIG. 5. Modulation of the galectin-1/semaphorin-3A/neuropilin system in SQ20B cells. A—Effects of galectin-1 (Gall), semaphorin-3A (Sema3A), lactose, with or without four different concentrations of OTX-008 on SQ20B growth at day 6. Embedded figure: Proliferation assay of SQ20B and SQ-shGAL1. B—In vitro matrigel invasion assay of SQ20B exposed to […] galectin-1, 1 μg/ml semaphorin-3A, 200 ng/ml lactose or 10 μM UO126 with or without 3 μM OTX-008. Embedded figure: In vitro matrigel invasion assay of SQ20B and SQ-shGAL1. Invasion was quantified after 48 h by counting the average number of invaded cells.
For proliferation assay, cells were seeded in 96-well tissue culture plates at a density of 1.5×10^3 cells/well. MTT assay was conducted daily to determine the number of viable cells in untreated control and treated group. Growth inhibition curves were plotted as a percentage of cells for each experimental condition.
(§2) Galectin-1 may form extracellular lattices counteracting the inhibitory properties of semaphorin-3A on neuropilin-1, eventually leading to the modulation of the vascular endothelial growth factor (VEGFR) and platelet derived growth factor (PDGFR) receptors, fibronectin, and laminin activity SQ20B cells expressed significant mRNA and protein levels of semaphorin-3A and neuropilin-1, PDGFRa&(, VEGF A-D, and VEGFR1-3 (Supplementary FIG. 2A). Thus, SQ20B cells were selected to evaluate the effects of OTX-008 on galectin-1/semaphorin-3A interactions. No difference between SQ20B cells growing in plastic or fibronectin- and laminin-coated plates. […] Galectin-1 and semaphorin-3A induced invasion was inhibited by OTX-008 mimicking the effects of lactose in this model.

SQ20B cells [2] = assay: Matrigel invasion assay; type: cell-based, human; conditions: for invasion of SQ20B cells, agent alone: 48 h, 1 g/ml galectin-1, 1 μg/ml semaphorin-3A, 10 μM UO126, 3 μM OTX-008
Experimental: as §1
8 μm membranes were coated with Matrigel (50 μg). The inserts were placed within a 24-well chamber containing 0.6 ml of RPMI 1640 medium with 20% fetal bovine serum as chemoattractant. 10^5 cells were seeded into the inserts suspended in 0.3 ml of serum-free RPMI. After incubation for 48 h at 37° C., the upper surface of the filter was scraped to remove non-invasive cells. Invasive cells were fixed and stained with a Diff Quik detection Kit (Dade Behring, Paris, France). For quantification, the average number of invading cells per field was assessed by counting 9 random fields under a light microscope (400×).
as §2

cdc2 (tyrosine 15) = assay: Western blot of phosphorylated cdc2 in SQ20B; type: cell-based, human; conditions: pretreated 2 h with UO126 then OTX-008 72 hours
Experimental: Cells were lysed in buffer containing 50 mM HEPES (pH 7.6), 150 mM NaCl, 1% Triton X-100, 2 mM sodium vanadate, 100 mM NaF, and 0.4 mg/ml phenylmethylsulfonyl fluoride. Equal amounts of protein (30 μg/lane) were subjected to SDS-PAGE and transferred to nitrocellulose membranes. Membranes were blocked with 5% milk in 0.05% Tween 20/phosphate-buffered saline and then incubated with the primary antibody overnight. Membranes were then washed and incubated with the secondary antibody conjugated to horseradish peroxidase. Bands were visualized by using the enhanced chemiluminescence Western blotting detection system. Densitometric analysis was performed under conditions that yielded a linear response. The following antibodies were used: anti-p-cdc2 (tyr15), anti-p-wee1 (ser642), anti-p-p44/42 MAPK (thr202/tyr204), anti-p44/42, anti-p-AKT (ser473), anti-AKT, anti-p-S6 (ser235/236) (Cell Signaling, Saint Quentin Yvelines, France), anti-p-PKCα (ser657) (BD Biosciences, Le-Pont-de-Claix, France) and anti-galectin-1 (Abcam, Cambridge, Mass., USA). All antibodies were used at a 1:1000 dilution.
To study the mechanism of OTX-008-induced inhibition of cell proliferation, the effect of OTX-008 on cell cycle in SQ20B cells was examined (FIG. 5B). […] Activation of cdc2 (cdk1) by de-phosphorylation of tyrosine 15 is required for G2/M transition. […]

B16 melanoma = conditions: syngeneic mouse B16 melanoma model; cited from earlier work
[3] = system: panel of human cancer cell lines; assay: MTT cell cytotoxicity assay, cell line panel; type: cell-based; conditions: cultured cancer cells
Experimental: Cell survival was determined using the MTT assay (3-[4,5-dimethylthiazol-2-yl]-2,5-diphenyltetrazolium bromide; Sigma, Saint-Quentin Fallavier, France). The conversion of yellow water-soluble tetrazolium MTT into purple insoluble formazan is catalyzed by mitochondrial dehydrogenases and used to estimate the number of viable cells. In brief, cells were seeded in 96-well tissue culture plates at a density of 2×10^3 cells/well. After 72 h drug exposure and 48 h wash-out, cells were incubated with 0.4 mg/ml MTT for 4 hours at 37° C. After incubation, the supernatant was discarded, insoluble formazan precipitates were dissolved in 0.1 ml of DMSO and the absorbance was measured at 560 nm by use of a microplate reader (Thermo, France). […] IC50's were determined as the halves of maximal inhibitory drug concentration for each cell line.
The antiproliferative effects of OTX-008 and anginex were assessed using MTT assay in a panel of human cancer cell lines of human origins expressing various levels of Lgals-1 mRNA and galectin-1 protein expressions (Supplementary Table 1). […] No correlation between mRNA expressions of galectin-2, galectin-3, and galectin-8 as well as semaphorin-3A, semaphorin-3B, neuropilin-1, VEGFR1-3, VEGFA-D, and PDGFRa&P3 and sensitivity to OTX-008 were detected in the panel.

[4] = system: human ovarian carcinoma MA148 xenografts; conditions: cited from earlier work
galectin-1 = target: T1, galectin-1 (Homo sapiens, UniProt P09382); assay: Western blot of galectin-1 in SQ20B cells; type: cell-based; conditions: Bortezomib 10 nM with 3 μM OTX-008, 48 h
T1 construct: Western Blot of galectin-1 on SQ20B cells treated with 3 μM OTX-008 for 24 h, 48 h and 72 h; endogenous in cells; host or cells: SQ20B (ATCC)
T1 sequence (P09382 whole entry): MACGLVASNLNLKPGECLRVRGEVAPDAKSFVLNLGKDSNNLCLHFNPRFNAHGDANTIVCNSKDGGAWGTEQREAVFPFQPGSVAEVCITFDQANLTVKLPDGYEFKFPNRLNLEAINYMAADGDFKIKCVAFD
Experimental: FIG. 3. Effects of OTX-008 on galectin-1 expression and localization. A—Western Blot of galectin-1 on SQ20B cells treated with 3 μM OTX-008 for 24 h, 48 h and 72 h. B and C—Immunofluorescence of galectin-1 on SQ20B cells treated with 3 μM OTX-008 for 24 and 48 h. B—OTX-008 treatment decreases galectin-1 immunostaining in SQ20B cells. C—Galectin-1 translocates into the nucleus after OTX-008 exposure. D—Western Blot of p-AKTser473, AKT, p-S6, p-ERK1/2, ERK and p-PKCα in SQ20B cells treated with 3 μM OTX-008 for 10 min, 1 h, 2 h, 5 h and 24 h.
FIG. 4. OTX-008-induced galectin-1 oxydation and degradation by the proteosome system A—Western Blot of galectin-1 on SQ20B cells treated 48 h with 10 μM N-acetylcysteine (NAC), 55 μM β-mercaptoethanol (βME), 1 mM Tempol and 10 μM co-enzyme Q10 (Q10) with or without 3 μM OTX-008. B—Western Blot of galectin-1 on SQ20B cells treated 48 h with 3 μM OTX-008, pretreated 2 h with proteasome inhibitor Bortezomib (10 nM) and then treated 48 h with 3 μM OTX-008 (BTZ—OTX-008) or treated 48 h with 10 nM Bortezomib+3 μM OTX-008 (BTZ+OTX-008).
Cells were lysed in buffer containing 50 mM HEPES (pH 7.6), 150 mM NaCl, 1% Triton X-100, 2 mM sodium vanadate, 100 mM NaF, and 0.4 mg/ml phenylmethylsulfonyl fluoride. Equal amounts of protein (30 μg/lane) were subjected to SDS-PAGE and transferred to nitrocellulose membranes. […]

## galectin-1: Recombinant galectin-1 purchased from R&D Systems
SQ20B cells [1]
  SQ20B cell proliferation, exogenous agent alone: had not effects
SQ20B cells [2]
  invasion of SQ20B cells, agent alone: enhance invasion

## N#CC(=C(/N)Sc1ccccc1N)/C(C#N)=C(/N)Sc1ccccc1N [UO126, reference compound]
SQ20B cells [2]
  invasion of SQ20B cells, agent alone: neither impact cellular invasion alone
cdc2 (tyrosine 15)
  OTX-008-mediated cdc2 phosphorylation after UO126 pretreatment: inhibited the increase of cdc2 phosphorylation

## anginex
B16 melanoma
  antitumor activity: antitumor activity
[3]
  antiproliferative effects (MTT): limited effects
[4]
  antitumor activity: antitumor activity

## CC(C)C[C@H](NC(=O)[C@H](Cc1ccccc1)NC(=O)c1cnccn1)B(O)O [bortezomib, reference compound]
galectin-1
  effect of proteasome inhibition on OTX-008-induced galectin-1 decrease: counteracts the inhibitory effects of OTX-008 on galectin-1 expression

## OC[C@H]1O[C@@H](O[C@H]2[C@H](O)[C@@H](O)C(O)O[C@@H]2CO)[C@H](O)[C@@H](O)[C@H]1O (stereo partly drawn) [lactose, reference compound]
SQ20B cells [1]
  SQ20B cell proliferation, exogenous agent alone: significant inhibition of cellular proliferation
SQ20B cells [2]; SQ20B, 200 ng/ml lactose with 3 μM OTX-008
  invasion, lactose combined with OTX-008: prevents the inhibition of invasion induced by OTX-008

B1: semaphorin-3A: Recombinant semaphorin-3A purchased from R&D Systems (protein, UniProt Q14563 21-771, looked up)
Semaphorin-3A: NYQNGKNNVPRLKLSYKEMLESNNVITFNGLANSSSYHTFLLDEERSRLYVGAKDHIFSFDLVNIKDFQKIVWPVSYTRRDECKWAGKDILKECANFIKVLKAYNQTHLYACGTGAFHPICTYIEIGHHPEDNIFKLENSHFENGRGKSPYDPKLLTASLLIDGELYSGTAADFMGRDFAIFRTLGHHHPIRTEQHDSRWLNDPKFISAHLISESDNPEDDKVYFFFRENAIDGEHSGKATHARIGQICKNDFGGHRSLVNKWTTFLKARLICSVPGPNGIDTHFDELQDVFLMNFKDPKNPVVYGVFTTSSNIFKGSAVCMYSMSDVRRVFLGPYAHRDGPNYQWVPYQGRVPYPRPGTCPSKTFGGFDSTKDLPDDVITFARSHPAMYNPVFPMNNRPIVIKTDVNYQFTQIVVDRVDAEDGQYDVMFIGTDVGTVLKVVSIPKETWYDLEEVLLEEMTVFREPTAISAMELSTKQQQLYIGSTAGVAQLPLHRCDIYGKACAECCLARDPYCAWDGSACSRYFPTAKRRTRRQDIRNGDPLTHCSDLHHDNHHGHSPEERIIYGVENSSTFLECSPKSQRALVYWQFQRRNEERKEEIRVDDHIIRTDQGLLLRSLQQKDSGNYLCHAVEHGFIQTLLKVTLEVIDTEHLEELLHKDDDGDGSKTKEMSNSMTPSQKVWYRDFMQLINHPNLNTMDEFCEQVWKRDRKQRRQRPGHTPGNSNKWKHLQENKKGRNRRTHEFERAPRSV
SQ20B cells [1]
  SQ20B cell proliferation, exogenous agent alone: concentration-dependent inhibition of cellular proliferation
SQ20B cells [2]
  invasion of SQ20B cells, agent alone: enhance invasion
